Data set [1] deals with normal MCF-10A breast cells.
Method: (§1) The antiproliferative activity and cytotoxicity of DHA-5-methylisatin hybrids 6a–c and 7a–m against MCF-7, MDA-MB-231, MCF-7/ADR, and MDA-MB-231/ADR (Purchased from Procell) breast cancer cell lines as well as MCF-10A were assessed by 3-(4,5-dimethylthiazol-2-yl)-2,5-diphenyltetrazolium bromide (MTT) assay.
(§2) MCF-7, MDA-MB-231, MCF-7/ADR, and MDA-MB-231/ADR breast cancer cell lines (2 × 10^3) were plated in each well of a 96-well plate and were allowed to adhere and spread for 24 h. The dihydroartemisinin-5-methylisatin hybrids 6a–e and 7a–m were added to a final concentration of 100 µM, and the cells were cultured for 24 h at 37 °C. 3-(4,5-dimethyl-2-thiazolyl)-2,5-diphenyltetrazolium bromide (MTT) solution (10 µL) was added to each well, and the cultures were incubated for an additional 4 h. A further 100 µL of MTT solution was added and incubation continued overnight. The absorbance at 540 nm was determined in each well with a 96-well plate reader. The growth of the treated cells was compared with that of untreated cells.
Data set [2] concerns MDA-MB-231/ADR breast cancer cell line. The data set is described as follows: MTT antiproliferative assay, MDA-MB-231/ADR. Type of data set: cell-based. The conditions noted are these: MDA-MB-231/ADR (drug-resistant).
Method: as §1, §2
The subject of data set [3] is MCF-7 breast cancer cell line. The data set is described as follows: MTT antiproliferative assay, MCF-7. Particulars: for IC50: MCF-7, MTT assay. It is filed as cell-based. For orientation: Tetrazolium assays rely on reduction of a dye to a coloured formazan, in cell work by metabolically active cells.
Method: as §1, §2
Data set [4] has as its system MCF-7/ADR breast cancer cell line. The data set is described as follows: MTT antiproliferative assay, MCF-7/ADR. It is filed as cell-based. The conditions noted are these: MCF-7/ADR (drug-resistant).
Method: as §1, §2
Data set [5] has as its system MDA-MB-231 breast cancer cell line. The data set is described as follows: MTT antiproliferative assay, MDA-MB-231. Type of data set: cell-based. Particulars: for IC50: MDA-MB-231, MTT assay.
Method: as §1, §2
Data set [6] is described as follows: MTT cytotoxicity assay, MCF-10A. Particulars: human, MCF-10A normal breast cells.
Method: as §1, §2
For data set [7], the system named is MCF-7, MDA-MB-231, MCF-7/ADR, and MDA-MB-231/ADR breast cancer cell lines. Description: MTT antiproliferative assay, summary over the breast cancer cell line panel. Type of data set: cell-based. Particulars: range over the four breast cancer cell lines; read-out: IC50 range across MCF-7, MDA-MB-231, MCF-7/ADR and MDA-MB-231/ADR.
Method: as §1, §2

With “3-(Methoxyimino)-1-(4-(((3R,5aS,6R,8aS,9R,12R,12aR)-3,6,9-trimethyldecahydro-12H-3,12-epoxy[1,2]dioxepino[4,3-i]isochromen-10-yl)oxy)butyl)indolin-2-one [Hybrid 7h]”, the IC50 in data set [1] was greater than 100 µM; in data set [2], 80.3 µM; in data set [3], 85.2 µM; in data set [4], 77.5 µM; in data set [5], 73.9 µM.
In the case of `Cc1ccc2c(c1)C(=NO)C(=O)N2CCOC1O[C@@H]2O[C@@]3(C)CC[C@H]4[C@H](C)CC[C@@H]([C@H]1C)[C@@]24OO3` (stereo partly drawn) [Hybrid 7a, 3-(Hydroxyimino)-5-methyl-1-(2-(((3R,5aS,6R,8aS,9R,12R,12aR)-3,6,9-trimethyldecahydro-12H-3,12-epoxy[1,2]dioxepino[4,3-i]isochromen-10-yl)oxy)ethyl)indolin-2-one], the IC50 in data set [2] (Homo sapiens) is 18.8 µM; in data set [3] (Homo sapiens, MCF7), 19.4 µM; in data set [4] (Homo sapiens, NCI/ADR-RES), 20.1 µM; in data set [5] (Homo sapiens), 15.3 µM; in data set [7] it was 15.3 to 20.1 µM. In addition, in data set [6], the IC50 at 24 h was greater than 100 µM. The “SI1: selectivity index IC50(MCF-10A)/IC50(MCF-7)” value in data set [3] (IC50(MCF-10A)/IC50(MCF-7)) is reported as greater than 5.15. Also, in data set [5] (IC50(MCF-10A)/IC50(MDA-MB-231)), the “SI2: selectivity index IC50(MCF-10A)/IC50(MDA-MB-231)” value was greater than 6.53.
“3-((Benzyloxy)imino)-6-methyl-1-(3-(((3R,5aS,6R,8aS,9R,12R,12aR)-3,6,9-trimethyldecahydro-12H-3,12-epoxy[1,2]dioxepino[4,3-i]isochromen-10-yl)oxy)propyl)indolin-2-one [Hybrid 7l]”: the IC50 in data set [1], in data set [2], in data set [3], in data set [4] and in data set [5] was greater than 100 µM in each case.
